# Data: BindingDB's records for doi:10.1016/s0960-894x(01)00219-0 (Research Biomet. Glaxo Wellcome Medicines Research Centre, 2001)
# Biological target: Receptor tyrosine-protein kinase erbB-2 (Rattus norvegicus, UniProt P06494)
# Assay: ChEBML_194950
# Description: Inhibition of rat Receptor protein-tyrosine kinase erbB2
# Receptor tyrosine-protein kinase erbB-2, sequence (P06494 whole entry): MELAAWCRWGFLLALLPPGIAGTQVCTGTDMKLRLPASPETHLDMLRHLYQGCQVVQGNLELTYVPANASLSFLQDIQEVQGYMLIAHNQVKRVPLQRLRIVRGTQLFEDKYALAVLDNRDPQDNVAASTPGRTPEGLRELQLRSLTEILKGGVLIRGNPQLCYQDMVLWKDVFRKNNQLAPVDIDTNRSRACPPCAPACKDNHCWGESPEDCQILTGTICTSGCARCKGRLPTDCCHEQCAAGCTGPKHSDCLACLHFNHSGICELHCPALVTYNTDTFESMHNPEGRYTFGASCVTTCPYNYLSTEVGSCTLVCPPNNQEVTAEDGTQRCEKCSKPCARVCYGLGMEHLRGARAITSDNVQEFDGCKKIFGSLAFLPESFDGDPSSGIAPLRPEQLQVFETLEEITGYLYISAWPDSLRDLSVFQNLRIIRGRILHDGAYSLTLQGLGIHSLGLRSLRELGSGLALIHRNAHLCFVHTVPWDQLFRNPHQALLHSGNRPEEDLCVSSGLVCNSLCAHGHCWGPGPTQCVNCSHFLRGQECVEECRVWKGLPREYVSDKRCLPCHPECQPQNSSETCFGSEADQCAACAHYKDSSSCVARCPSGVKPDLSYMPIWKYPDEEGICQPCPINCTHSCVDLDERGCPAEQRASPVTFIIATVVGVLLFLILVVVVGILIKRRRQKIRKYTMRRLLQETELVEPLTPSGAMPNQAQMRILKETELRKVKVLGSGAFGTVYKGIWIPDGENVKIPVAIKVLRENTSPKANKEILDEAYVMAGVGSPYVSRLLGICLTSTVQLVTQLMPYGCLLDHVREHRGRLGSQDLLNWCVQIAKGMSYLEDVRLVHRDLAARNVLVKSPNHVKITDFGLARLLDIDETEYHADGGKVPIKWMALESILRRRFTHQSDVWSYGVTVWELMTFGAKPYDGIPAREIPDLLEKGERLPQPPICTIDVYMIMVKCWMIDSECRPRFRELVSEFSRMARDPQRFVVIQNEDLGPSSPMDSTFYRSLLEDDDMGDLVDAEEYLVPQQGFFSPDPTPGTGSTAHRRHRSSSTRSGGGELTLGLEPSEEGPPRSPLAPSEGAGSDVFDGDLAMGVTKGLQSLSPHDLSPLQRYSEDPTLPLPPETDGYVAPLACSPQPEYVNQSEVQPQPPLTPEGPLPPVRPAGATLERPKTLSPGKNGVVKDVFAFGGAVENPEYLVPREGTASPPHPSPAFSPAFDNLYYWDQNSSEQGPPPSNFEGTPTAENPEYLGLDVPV
row,IC50 [nM],SMILES
1,390,"CN(C)c1cc2c(Nc3ccc4c(cnn4Cc4ccccc4)c3)ncnc2cn1 [N*4*-(1-Benzyl-1H-indazol-5-yl)-N*6*,N*6*-dimethyl-pyrido[3,4-d]pyrimidine-4,6-diamine]"

# Biological target: not listed separately
# Assay: Inhibition of erbB2 overexpressing BT 474 cell proliferation
row,IC50 [nM],SMILES
1,70,"CN(C)c1cc2c(Nc3ccc4c(cnn4Cc4ccccc4)c3)ncnc2cn1 [N*4*-(1-Benzyl-1H-indazol-5-yl)-N*6*,N*6*-dimethyl-pyrido[3,4-d]pyrimidine-4,6-diamine]"

# Biological target: not listed separately
# Assay: Inhibition of c-erbB-2 overexpressing HB4a cell proliferation
row,IC50 [nM],SMILES
1,97,"Nc1cc2c(Nc3ccc4c(cnn4Cc4ccccc4)c3)ncnc2cn1 [N*4*-(1-Benzyl-1H-indazol-5-yl)-pyrido[3,4-d]pyrimidine-4,6-diamine]"
2,21000,c1ccc(Cn2cnc3ccc(Nc4ncnc5ccccc45)cc32)cc1 [(3-Benzyl-3H-benzoimidazol-5-yl)-quinazolin-4-yl-amine]
3,1300,c1ccc(Cc2nc3ccc(Nc4ncnc5ccccc45)cc3[nH]2)cc1 [(2-Benzyl-1H-benzoimidazol-5-yl)-quinazolin-4-yl-amine]
4,3100,"COc1cc2ncnc(Nc3ccc4nn(Cc5ccccc5)cc4c3)c2cc1OC [(2-Benzyl-2H-indazol-5-yl)-(6,7-dimethoxy-quinazolin-4-yl)-amine]"
5,350,"COc1cc2ncnc(Nc3ccc4c(ccn4Cc4ccccc4)c3)c2cc1OC [(1-Benzyl-1H-indol-5-yl)-(6,7-dimethoxy-quinazolin-4-yl)-amine]"
6,290,"COc1cc2ncnc(Nc3ccc4c(cnn4Cc4ccccc4)c3)c2cc1OC [(1-Benzyl-1H-indazol-5-yl)-(6,7-dimethoxy-quinazolin-4-yl)-amine]"
7,1100,"COc1cc2ncnc(Nc3ccc4nc(Cc5ccccc5)[nH]c4c3)c2cc1OC [(2-Benzyl-1H-benzoimidazol-5-yl)-(6,7-dimethoxy-quinazolin-4-yl)-amine]"
8,1300,c1ccc(Cn2ccc3cc(Nc4ncnc5ccccc45)ccc32)cc1 [(1-Benzyl-1H-indol-5-yl)-quinazolin-4-yl-amine]
9,27000,c1ccc(Cn2cnc3cc(Nc4ncnc5ccccc45)ccc32)cc1 [(1-Benzyl-1H-benzoimidazol-5-yl)-quinazolin-4-yl-amine]
10,1860,"Nc1cc2c(Nc3ccc4nc(Cc5ccccc5)[nH]c4c3)ncnc2cn1 [N*4*-(2-Benzyl-1H-benzoimidazol-5-yl)-pyrido[3,4-d]pyrimidine-4,6-diamine]"

# Biological target: not listed separately
# Assay: Inhibition of erbB2 overexpressing HB4a.e5.2 cell proliferation
row,IC50 [nM],SMILES
1,97,"CN(C)c1cc2c(Nc3ccc4c(cnn4Cc4ccccc4)c3)ncnc2cn1 [N*4*-(1-Benzyl-1H-indazol-5-yl)-N*6*,N*6*-dimethyl-pyrido[3,4-d]pyrimidine-4,6-diamine]"
